Assay results from PMC12568301 (Veterinary Sciences, 2025).
“Also recorded” adds a separate entry of the source. Where two headings read alike, the source gives them in different places.

Tests used:
FMDV serotype A (NP05) [1] = assay: microbe, parasite or virus in culture; type: cell-based, Foot-and-Mouth Disease Virus; details: for EC50: BHK-21, 22 h, read-out: Antiviral Activity EC50, Viral Copy Number (RT-qPCR)
FMDV serotype A (NP05) [2] = assay: microbe, parasite or virus in culture; type: cell-based, Foot-and-Mouth Disease Virus; details: for EC50: Foot-and-mouth disease virus, BHK-21, read-out: Antiviral Activity EC50, Normalized Delta Ct (RT-qPCR)
FMDV 3D^pol = FMDV 3D^pol (Foot-and-mouth disease virus serotype O, UniProt P03305); assay: cell-based; type: cell-based
FMDV 3C^pro = FMDV 3C^pro (Foot-and-mouth disease virus serotype O, UniProt P03305); type: cell-based
[3] = tested on: FMDV serotype A (A/TAI/NP05/2017; NP05); type: cell-based, Foot-and-Mouth Disease Virus
BHK-21 cells = details: for Cytotoxicity CC10 (maximum non-toxic concentration): hamster
in vitro = details: hamster
[4] = tested on: FMDV serotype A (A/TAI/NP05/2017; NP05); assay: in vitro; details: hamster
[5] = tested on: FMDV serotype A (A/TAI/NP05/2017; NP05); assay: microbe, parasite or virus in culture; details: Foot-and-mouth disease virus
[6] = tested on: influenza virus neuraminidase; details: 5 µg/mL; cited from earlier work
influenza A (H1N1) virus = details: cited from earlier work
[7] = BHK-21, read-out: Antiviral Activity EC50, FMDV Specific-Positive Cell (IPMA)

Sequence of FMDV 3D^pol (P03305 1863-2332 limits assumed): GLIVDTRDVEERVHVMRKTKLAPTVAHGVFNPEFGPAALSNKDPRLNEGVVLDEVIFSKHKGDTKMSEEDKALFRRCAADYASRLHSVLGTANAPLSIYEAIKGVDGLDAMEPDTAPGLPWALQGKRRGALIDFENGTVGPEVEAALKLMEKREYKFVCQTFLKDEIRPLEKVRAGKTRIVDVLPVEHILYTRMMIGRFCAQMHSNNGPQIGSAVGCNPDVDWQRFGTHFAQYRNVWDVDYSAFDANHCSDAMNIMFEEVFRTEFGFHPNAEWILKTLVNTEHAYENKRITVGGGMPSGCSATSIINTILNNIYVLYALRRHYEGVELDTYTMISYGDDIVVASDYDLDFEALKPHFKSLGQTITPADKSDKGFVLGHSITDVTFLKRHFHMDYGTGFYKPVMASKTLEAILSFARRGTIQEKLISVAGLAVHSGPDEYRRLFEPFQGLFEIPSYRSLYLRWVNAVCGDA
Sequence of FMDV 3C^pro (P03305 1650-1862 limits assumed): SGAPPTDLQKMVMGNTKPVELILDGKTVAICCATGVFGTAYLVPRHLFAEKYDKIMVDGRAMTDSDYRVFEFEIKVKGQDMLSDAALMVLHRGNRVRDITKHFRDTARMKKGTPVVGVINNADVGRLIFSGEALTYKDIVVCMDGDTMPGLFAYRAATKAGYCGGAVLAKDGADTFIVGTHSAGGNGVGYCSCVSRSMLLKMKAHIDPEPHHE

Q: With `c1cc2c(cc1[C@H]1OC[C@H]3[C@@H]1CO[C@H]3c1ccc3c(c1)OCO3)OCO2` [(-)-Asarinin] as the molecule, how does the “Selective index SI, Viral Copy Number (RT-qPCR)” value (FMDV serotype A (NP05) [1]) read?
A: Its value is 36.70 ± 1.57 (36.06 to 37.34) SI = 2.46.

Q: And the EC50 (FMDV serotype A (NP05) [1]; Foot-and-mouth disease virus)?
A: The EC50 was 36.7 µM.

Q: And the inhibition at 40 µM (FMDV serotype A (NP05) [1]; Foot-and-mouth disease virus, BHK-21, read-out: Inhibition of FMDV viral copy number)?
A: The inhibition at 40 µM was 50%.

Q: What about the “Inhibition of negative-strand RNA production” value (FMDV serotype A (NP05) [2]) of the same molecule?
A: The value was > 60%.

Q: And the “Selective index SI, Normalized Delta Ct (RT-qPCR)” value (FMDV serotype A (NP05) [2])?
A: The value was 31.67 ± 1.50 (30.47 to 32.87) SI = 2.86.

Q: And the EC50 (FMDV serotype A (NP05) [2])?
A: Its EC50 is 31.7 µM.

Q: And the “Fold greater potency compared to sesamin (IC50, minigenome)” value (FMDV 3D^pol)?
A: The value was “approximately 7 fold”.

Q: What about the IC50 (FMDV 3D^pol) of the same molecule?
A: The IC50 was 10.4 µM.

Q: What about the “Selective index SI, GFP Signal (FMDV Minigenome)” value (FMDV 3D^pol) of the same molecule?
A: Its value is 10.37 ± 1.01 (9.56 to 11.18) SI = 8.72.

Q: And the “Effect on FMDV 3C^pro activity” value (FMDV 3C^pro)?
A: Its value is “Neither sesamin nor (-)-asarinin inhibited FMDV 3C^pro; also recorded: no activity observed”.

Q: What about the “Inhibition of FMDV infection / cytopathic effect, post-viral entry” value [3] of the same molecule?
A: Its value is “dose-dependent inhibition”.

Q: And the “Toxicity to BHK-21 cells in words” value (BHK-21 cells; at 100 µM)?
A: The value was “moderate cytotoxicity”.

Q: What about the “Cytotoxicity CC10 (maximum non-toxic concentration)” value (BHK-21 cells) of the same molecule?
A: Its value is 65.05 ± 1.81 µM.

Q: And the CC50 (in vitro)?
A: The CC50 was 90.4 ± 1.95 µM.

Q: What about the selectivity ratio [4] of the same molecule?
A: Its selectivity ratio is 5.99.

Q: And the EC50 [5, 7]?
A: The EC50 was 15.1 µM.

Q: What about the EC50 ([5]; BHK-21, read-out: Effect against FMDV infection (range of EC50 values)) of the same molecule?
A: Its EC50 is 15.1 to 36.7 µM.

Q: What does the source list for `COc1cc(C2OCC3C(c4cc(OC)c(OC5OC(CO)C(O)C(O)C5O)c(OC)c4)OCC23)cc(OC)c1OC1OC(CO)C(O)C(O)C1O` (stereo not shown) [Eleutheroside E]?
A: Inhibition of FMDV infection / cytopathic effect, post-viral entry [3]: no potent effect; Toxicity to BHK-21 cells in words (BHK-21 cells): moderate cytotoxicity; Cytotoxicity CC10 (maximum non-toxic concentration) (BHK-21 cells): 11.39 ± 1.05 µM; CC50 (in vitro): 20.8 ± 1.31 µM

Q: Which results are given for `OC12COC(c3ccc4c(c3)OCO4)C1COC2c1ccc2c(c1)OCO2` (stereo not shown) [Paulownin]?
A: Toxicity to BHK-21 cells in words (BHK-21 cells): mild toxicity; Cytotoxicity CC10 (maximum non-toxic concentration) (BHK-21 cells): 147.00 ± 2.167 µM; CC50 (in vitro): 860.6 ± 2.93 µM

Q: What does the source list for `COc1cc([C@@H]2c3cc4c(cc3[C@H](O)[C@H]3COC(=O)[C@@H]23)OCO4)cc(OC)c1OC` [Picropodophyllotoxin]?
A: Toxicity to BHK-21 cells in words (BHK-21 cells): moderate cytotoxicity; Cytotoxicity CC10 (maximum non-toxic concentration) (BHK-21 cells): 50.07 ± 1.70 µM; CC50 (in vitro): 136 ± 2.13 µM

Q: For `NC(=O)c1ncn([C@@H]2O[C@H](CO)[C@@H](O)[C@H]2O)n1` [Ribavirin, reference compound], which EC50 (FMDV serotype A (NP05) [1]; Foot-and-mouth disease virus) is on record?
A: The EC50 was 32.8 µM.

Q: What about the EC50 (FMDV serotype A (NP05) [2]) of the same molecule?
A: Its EC50 is 29.4 µM.

Q: What about the CC50 (in vitro) of the same molecule?
A: Its CC50 is ≥ 500 µM.

Q: And the EC50 [5, 7]?
A: Its EC50 is 39.6 µM.

Q: Which “Inhibition of FMDV viral copy number in words” value (FMDV serotype A (NP05) [1]) does the source give for `c1cc2c(cc1[C@H]1OC[C@H]3[C@@H]1CO[C@@H]3c1ccc3c(c1)OCO3)OCO2` [Sesamin] here?
A: Its value is “markedly significant inhibition”.

Q: What about the “Selective index SI, Viral Copy Number (RT-qPCR)” value (FMDV serotype A (NP05) [1]) of the same molecule?
A: The value was 82.43 ± 1.92 (81.65 to 83.21) SI = 7.33.

Q: What about the EC50 (FMDV serotype A (NP05) [1]; Foot-and-mouth disease virus) of the same molecule?
A: The EC50 was 82.4 µM.

Q: And the “Selective index SI, Normalized Delta Ct (RT-qPCR)” value (FMDV serotype A (NP05) [2])?
A: Its value is 60.94 ± 1.79 (60.21 to 61.67) SI = 9.92.

Q: And the EC50 (FMDV serotype A (NP05) [2])?
A: Its EC50 is 60.9 µM.

Q: What about the IC50 (FMDV 3D^pol) of the same molecule?
A: The IC50 was 74.9 µM.

Q: What about the “Selective index SI, GFP Signal (FMDV Minigenome)” value (FMDV 3D^pol) of the same molecule?
A: Its value is 74.89 ± 1.87 (73.39 to 76.39) SI = 8.07.

Q: What about the “Effect on FMDV 3C^pro activity” value (FMDV 3C^pro) of the same molecule?
A: The value was “Neither sesamin nor (-)-asarinin inhibited FMDV 3C^pro”.

Q: What about the “Inhibition of FMDV infection / cytopathic effect, post-viral entry” value [3] of the same molecule?
A: Its value is “dose-dependent inhibition”.

Q: And the “Toxicity to BHK-21 cells in words” value (BHK-21 cells; at 100 µM)?
A: The value was “mild toxicity”.

Q: What about the “Cytotoxicity CC10 (maximum non-toxic concentration)” value (BHK-21 cells) of the same molecule?
A: Its value is 254.20 ± 2.40 µM.

Q: What about the “Inhibition of influenza virus neuraminidase” value [6] of the same molecule?
A: The value was “inhibited influenza virus neuraminidase”.

Q: What about the CC50 (in vitro) of the same molecule?
A: The CC50 was 604.6 ± 2.78 µM.

Q: And the selectivity ratio [4]?
A: The selectivity ratio was 11.4.

Q: What about the Cytotoxicity (influenza A (H1N1) virus) of the same molecule?
A: The Cytotoxicity was “without exhibiting cytotoxicity”.

Q: What about the “Inhibition of influenza A (H1N1) virus (reduced inflammatory cytokines)” value (influenza A (H1N1) virus) of the same molecule?
A: The value was “inhibit influenza A (H1N1) virus”.

Q: And the EC50 [5, 7]?
A: Its EC50 is 53 µM.

Q: For Gomisin A, which “Inhibition of FMDV infection / cytopathic effect, post-viral entry” value [3] is on record?
A: Its value is “no potent effect”.
